Test results: the supplement of paper PMC10307832

What was measured:
Assay in all cases: relative viability (nuclei count vs DMSO), 5 days (fraction); higher = more cells survive
COR-L 105 = tested on: COR-L 105
Outline: (§1)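 Relative viability equals treated-well nuclei counts divided by vehicle-well nuclei counts. Counts came from 4× images of lung cancer cell lines grown in 1536-well plates for 5 days after pin-tool dosing on the day after seeding. Dosing used one drug alone or a fixed anchor-drug dose plus five library-drug doses (not always all listed) in √10 steps, and values are medians of duplicate plates.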

EMC-BAC-2 = tested on: EMC-BAC-2
Outline: as §1

NCI-H727 = tested on: NCI-H727
Outline: as §1

NCI-H1395 = tested on: NCI-H1395
Outline: as §1

CAL-12T = tested on: CAL-12T
Outline: as §1

SK-LU-1 = tested on: SK-LU-1
Outline: as §1

HCC-366 = tested on: HCC-366
Outline: as §1

HOP-62 = tested on: HOP-62
Outline: as §1

NCI-H1437 = tested on: NCI-H1437
Outline: as §1

NCI-H1755 = tested on: NCI-H1755
Outline: as §1

HARA = tested on: HARA
Outline: as §1

A-427 = tested on: A-427
Outline: as §1

NCI-H1792 = tested on: NCI-H1792
Outline: as §1

NCI-H2228 = tested on: NCI-H2228
Outline: as §1

NCI-H2009 = tested on: NCI-H2009
Outline: as §1

NCI-H1915 = tested on: NCI-H1915
Outline: as §1

NCI-H23 = tested on: NCI-H23
Outline: as §1

SW 1573 = tested on: SW 1573
Outline: as §1

NCI-H460 = tested on: NCI-H460
Outline: as §1

HCC-827 = tested on: HCC-827
Outline: as §1

`CC(=O)O[C@@]12CO[C@@H]1C[C@H](O)[C@@]1(C)C(=O)[C@H](O)C3=C(C)[C@@H](OC(=O)[C@H](O)[C@@H](NC(=O)OC(C)(C)C)c4ccccc4)C[C@@](O)([C@@H](OC(=O)c4ccccc4)[C@H]21)C3(C)C` [Docetaxel] + CC1(C)CCC(c2ccc(Cl)cc2)=C(CN2CCN(c3ccc(C(=O)NS(=O)(=O)c4ccc(N[C@H](CCN5CCOCC5)CSc5ccccc5)c(S(=O)(=O)C(F)(F)F)c4)cc3)CC2)C1 [Navitoclax] (partner 0.5 µM) showed a relative viability (COR-L 105; first compound 0.0002 µM) of 0.94, a relative viability (COR-L 105; first compound 0.000632 µM) of 0.715 and a relative viability (COR-L 105; first compound 0.002 µM) of 0.343. The relative viability (COR-L 105; first compound 0.006325 µM) was 0.367, the relative viability (COR-L 105; first compound 0.02 µM) was 0.26 and the relative viability (EMC-BAC-2; first compound 0.0002 µM) was 1.14. For the same compound, the relative viability (EMC-BAC-2; first compound 0.000632 µM) was 1.11, the relative viability (EMC-BAC-2; first compound 0.002 µM) was 0.735 and the relative viability (EMC-BAC-2; first compound 0.006325 µM) was 0.272. For the same compound, the relative viability (EMC-BAC-2; first compound 0.02 µM) was 0.148, the relative viability (NCI-H727; first compound 0.0002 µM) was 0.488 and the relative viability (NCI-H727; first compound 0.000632 µM) was 0.442. For the same compound, the relative viability (NCI-H727; first compound 0.002 µM) was 0.308, the relative viability (NCI-H727; first compound 0.02 µM) was 0.149 and the relative viability (NCI-H1395; first compound 0.0002 µM) was 1.15. The relative viability (NCI-H1395; first compound 0.000632 µM) was 1.1, the relative viability (NCI-H1395; first compound 0.002 µM) was 0.895 and the relative viability (NCI-H1395; first compound 0.006325 µM) was 0.394. For the same compound, the relative viability (NCI-H1395; first compound 0.02 µM) was 0.357, the relative viability (CAL-12T; first compound 0.0002 µM) was 1.02 and the relative viability (CAL-12T; first compound 0.000632 µM) was 0.694. It also gave a relative viability (CAL-12T; first compound 0.002 µM) of 0.178, a relative viability (CAL-12T; first compound 0.02 µM) of 0.101 and a relative viability (SK-LU-1; first compound 0.0002 µM) of 0.721. It also gave a relative viability (SK-LU-1; first compound 0.000632 µM) of 0.454, a relative viability (SK-LU-1; first compound 0.002 µM) of 0.141 and a relative viability (SK-LU-1; first compound 0.006325 µM) of 0.215. The relative viability (SK-LU-1; first compound 0.02 µM) was 0.112, the relative viability (HCC-366; first compound 0.0002 µM) was 1.03 and the relative viability (HCC-366; first compound 0.000632 µM) was 0.969. For the same compound, the relative viability (HCC-366; first compound 0.002 µM) was 0.0411, the relative viability (HCC-366; first compound 0.006325 µM) was 0.0211 and the relative viability (HCC-366; first compound 0.02 µM) was 0.0135. The relative viability (HOP-62; first compound 0.0002 µM) was 0.878, the relative viability (HOP-62; first compound 0.000632 µM) was 0.552 and the relative viability (HOP-62; first compound 0.002 µM) was 0.312. The relative viability (HOP-62; first compound 0.02 µM) was 0.0795, the relative viability (NCI-H1437; first compound 0.0002 µM) was 1.02 and the relative viability (NCI-H1437; first compound 0.000632 µM) was 0.644. For the same compound, the relative viability (NCI-H1437; first compound 0.002 µM) was 0.182, the relative viability (NCI-H1437; first compound 0.02 µM) was 0.104 and the relative viability (NCI-H1755; first compound 0.0002 µM) was 0.982. It also gave a relative viability (NCI-H1755; first compound 0.000632 µM) of 0.98, a relative viability (NCI-H1755; first compound 0.002 µM) of 0.401 and a relative viability (NCI-H1755; first compound 0.006325 µM) of 0.232. It also gave a relative viability (NCI-H1755; first compound 0.02 µM) of 0.136, a relative viability (HARA; first compound 0.0002 µM) of 1.08 and a relative viability (HARA; first compound 0.000632 µM) of 0.912. It also gave a relative viability (HARA; first compound 0.002 µM) of 0.156, a relative viability (HARA; first compound 0.006325 µM) of 0.107 and a relative viability (HARA; first compound 0.02 µM) of 0.0621. It also gave a relative viability (A-427; first compound 0.0002 µM) of 0.987, a relative viability (A-427; first compound 0.000632 µM) of 0.926 and a relative viability (A-427; first compound 0.002 µM) of 0.641. For the same compound, the relative viability (A-427; first compound 0.006325 µM) was 0.26, the relative viability (A-427; first compound 0.02 µM) was 0.181 and the relative viability (NCI-H1792; first compound 0.0002 µM) was 0.441. It also gave a relative viability (NCI-H1792; first compound 0.000632 µM) of 0.614, a relative viability (NCI-H1792; first compound 0.002 µM) of 0.437 and a relative viability (NCI-H1792; first compound 0.02 µM) of 0.0744. It also gave a relative viability (NCI-H2228; first compound 0.0002 µM) of 0.854, a relative viability (NCI-H2228; first compound 0.000632 µM) of 0.35 and a relative viability (NCI-H2228; first compound 0.002 µM) of 0.156. The relative viability (NCI-H2228; first compound 0.006325 µM) was 0.114, the relative viability (NCI-H2228; first compound 0.02 µM) was 0.056 and the relative viability (NCI-H2009; first compound 0.0002 µM) was 1.15. For the same compound, the relative viability (NCI-H2009; first compound 0.000632 µM) was 1.19, the relative viability (NCI-H2009; first compound 0.002 µM) was 0.892 and the relative viability (NCI-H2009; first compound 0.006325 µM) was 0.575. For the same compound, the relative viability (NCI-H2009; first compound 0.02 µM) was 0.117, the relative viability (NCI-H1915; first compound 0.0002 µM) was 0.789 and the relative viability (NCI-H1915; first compound 0.000632 µM) was 0.774. The relative viability (NCI-H1915; first compound 0.002 µM) was 0.524, the relative viability (NCI-H1915; first compound 0.006325 µM) was 0.102 and the relative viability (NCI-H1915; first compound 0.02 µM) was 0.0504. The relative viability (NCI-H23; first compound 0.0002 µM) was 0.876, the relative viability (NCI-H23; first compound 0.000632 µM) was 0.741 and the relative viability (NCI-H23; first compound 0.002 µM) was 0.514. The relative viability (NCI-H23; first compound 0.006325 µM) was 0.242, the relative viability (SW 1573; first compound 0.0002 µM) was 1.06 and the relative viability (SW 1573; first compound 0.000632 µM) was 0.204. The relative viability (SW 1573; first compound 0.002 µM) was 0.15, the relative viability (SW 1573; first compound 0.006325 µM) was 0.0763 and the relative viability (SW 1573; first compound 0.02 µM) was 0.0456. For the same compound, the relative viability (NCI-H460; first compound 0.0002 µM) was 0.997, the relative viability (NCI-H460; first compound 0.000632 µM) was 0.219 and the relative viability (NCI-H460; first compound 0.002 µM) was 0.0187. It also gave a relative viability (NCI-H460; first compound 0.006325 µM) of 0.0123, a relative viability (NCI-H460; first compound 0.02 µM) of 0.0104 and a relative viability (HCC-827; first compound 0.0002 µM) of 1.02. The relative viability (HCC-827; first compound 0.000632 µM) was 1.02, the relative viability (HCC-827; first compound 0.002 µM) was 0.943 and the relative viability (HCC-827; first compound 0.006325 µM) was 0.334. For the same compound, the relative viability (HCC-827; first compound 0.02 µM) was 0.252.
